Measured values as given in PMC9604729, “Unusual Tetrahydropyridoindole-Containing Tetrapeptides with Human Nicotinic Acetylcholine Receptors Targeting Activity Discovered from Antarctica-Derived Psychrophilic Pseudogymnoascus sp. HDN17-933” (Marine Drugs, 2022).
“And” between values parts separate entries of the source, which are not always exact repeats. Equal values may be shown once. Read-outs that look alike come from different tables or passages of the source. Square brackets hold non-standard residues; d marks the D form. Ends that are not written are not given here. Peptide text beside a SMILES is read from it. Tpi = O=C(O)[C@@H]1Cc2c([nH]c3ccccc23)CN1

Key:
NF-kB = tested on: NF-kB; set-up: method as in doi:10.1016/j.tet.2012.09.038; conditions: cited from earlier work
HL60 cell lines = conditions: cited from earlier work
BEL-7047 cell lines = tested on: BEL-7047 cell lines; set-up: method as in doi:10.1016/j.tet.2008.11.078; conditions: read-out: IC50, cytotoxicity against BEL-7047 cell lines; cited from earlier work
Balamus amphitrite = tested on: Balamus amphitrite; set-up: method as in doi:10.1016/j.tetlet.2015.12.026; conditions: cited from earlier work
human (h) α1β1εδ nAChR [1] = target: T1, human (h) α1β1εδ nAChR (Homo sapiens, UniProt P02708+P11230+Q04844+Q07001); assay: Two-electrode voltage clamp, inhibition of ACh-evoked currents at hα1β1εδ nAChR in Xenopus oocytes; format: cell-based; conditions: for Relative current amplitude (h) α1β1εδ: compound 100 µM, currents activated by 5 μM ACh, ratio ACh + compound to ACh alone, mean ± SD, n = 6–11
T1 construct: host or cells: Xenopus laevis oocytes, cRNA injected
Experimental: (§1) All procedures were approved by the University of Wollongong Animal Ethics Committees (project number: AE2003). Female Xenopus laevis were sourced from Nasco (Fort Atkinson, WI, USA), and a maximum of four frogs were kept in a 15 L aquarium at 20–26 °C with 12 h light/dark cycle. Oocytes were obtained from five-year-old frogs anesthetized with 1.7 mg/mL ethyl 3-aminobenzoate methanesulfonate (pH 7.4 with NaHCO3). Stage V-VI oocytes (Dumont’s classification; 1200–1300 μm diameter) were defolliculated with 1.5 mg/mL collagenase Type II (Worthington Biochemical Corp., Lakewood, NJ, USA) at room temperature for 1–2 h in OR-2 solution containing (in mM): 82.5 NaCl, 2 KCl, 1 MgCl2 and 5 HEPES at pH 7.4.
(§2) The human muscle nAChR clones (α1, β1, γ, δ and ε) were purchased from Integrated DNA Technologies (Coralville, IA, USA), whereas the human α3, α9, α10, β2, and β4 clones were purchased from OriGene (Rockville, MD, USA), and all were subsequently inserted into the pT7TS vector. The human α4 and α7 clones were obtained from Prof. Jon Lindstrom (University of Pennsylvania, Philadelphia, PA, USA). Plasmid constructs of the human nAChR clones were linearized for in vitro mRNA synthesis using mMessage mMachine transcription kit (AMBION, Forster City, CA, USA).
(§3) Oocytes were injected with 5 ng cRNA for hα1β1γδ, hα1β1εδ, hα3β2, hα3β4 and hα4β2, 10 ng cRNA for hα7 nAChR, and 35 ng cRNA for hα9α10 nAChR (concentration confirmed spectrophotometrically and by gel electrophoresis). The muscle subunit cRNA ratio was 2:1:1:1 (α1:β1: γ/ε:δ), whereas the heteromeric α and β subunit cRNA ratio was 1:1, injected using glass pipettes pulled from glass capillaries (3-000-203 GX, Drummond Scientific Co., Broomall, PA, USA). Oocytes were incubated at 18 °C in sterile ND96 solution composed of (in mM): 96 NaCl, 2 KCl, 1 CaCl2, 1 MgCl2, and 5 HEPES at pH 7.4, supplemented with 5% fetal bovine serum, 50 mg/L gentamicin (GIBCO, Grand Island, NY, USA) and […] penicillin-streptomycin (GIBCO).
(§4) Electrophysiological recordings were carried out 2–5 days post cRNA microinjection. Two-electrode voltage clamp recordings of X. laevis oocytes expressing human nAChRs were performed at room temperature (21–24 °C) using a GeneClamp 500B amplifier and pClamp9 software interface (Molecular Devices, Sunnyvale, CA, USA) at a holding potential −80 mV. Voltage-recording and current-injecting electrodes were pulled from GC150T-7.5 borosilicate glass (Harvard Apparatus, Holliston, MA) and filled with 3 M KCl, giving resistances of 0.3–1 MΩ. Due to the Ca^2+ permeability of α9α10 nAChRs, 100 µM BAPTA-AM incubation was carried out before recording to prevent the activation of X. laevis oocyte endogenous Ca^2+-activated chloride channels. Oocytes expressing hα9α10 nAChRs were perfused with ND115 solution containing (in mM): 115 NaCl, 2.5 KCl, 1.8 CaCl2, and 10 HEPES at pH 7.4, whereas oocytes expressing all other nAChR subtypes were perfused with ND96 solution using a continuous Legato 270 push/pull syringe pump perfusion system (KD Scientific, Holliston, MA, USA) at a rate of 2 mL/min in an OPC-1 perfusion chamber of <20 µL volume (Automate Scientific, Berkeley, CA, USA).
(§5) Initially, oocytes were briefly washed with ND115/ND96 solution, followed by 3 applications of ACh at a half-maximal excitatory ACh concentration (EC50) for the nAChR subtypes (3 µM for hα4β2, 5 µM for hα1β1γδ and hα1β1εδ, 6 µM for hα3β2 and hα9α10, 100 µM for hα7 and 300 µM for hα3β4). Washout with bath solution was performed for 3 min between ACh applications. Oocytes were incubated with compounds for 5 min with the perfusion system turned off, followed by co-application of ACh and compound with flowing bath solution. All compound solutions were prepared in ND115/ND96 + 0.1% bovine serum albumin (BSA). Incubation with 0.1% BSA was performed to ensure that the BSA and the pressure of the perfusion system had no effect on nAChRs. […]
Target sequence in this assay (P02708 21-457 limits assumed): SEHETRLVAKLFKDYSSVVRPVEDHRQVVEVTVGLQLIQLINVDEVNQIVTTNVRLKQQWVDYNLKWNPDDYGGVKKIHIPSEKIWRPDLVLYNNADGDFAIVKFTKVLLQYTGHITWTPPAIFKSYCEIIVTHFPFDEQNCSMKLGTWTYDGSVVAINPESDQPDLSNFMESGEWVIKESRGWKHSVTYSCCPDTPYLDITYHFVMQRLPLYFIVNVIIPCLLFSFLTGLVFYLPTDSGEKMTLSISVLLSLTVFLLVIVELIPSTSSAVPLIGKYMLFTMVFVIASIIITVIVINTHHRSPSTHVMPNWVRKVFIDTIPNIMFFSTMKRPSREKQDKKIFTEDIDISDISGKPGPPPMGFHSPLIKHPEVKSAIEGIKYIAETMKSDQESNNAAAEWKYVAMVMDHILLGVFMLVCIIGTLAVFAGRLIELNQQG
Target sequence in this assay (P11230 24-501 limits assumed): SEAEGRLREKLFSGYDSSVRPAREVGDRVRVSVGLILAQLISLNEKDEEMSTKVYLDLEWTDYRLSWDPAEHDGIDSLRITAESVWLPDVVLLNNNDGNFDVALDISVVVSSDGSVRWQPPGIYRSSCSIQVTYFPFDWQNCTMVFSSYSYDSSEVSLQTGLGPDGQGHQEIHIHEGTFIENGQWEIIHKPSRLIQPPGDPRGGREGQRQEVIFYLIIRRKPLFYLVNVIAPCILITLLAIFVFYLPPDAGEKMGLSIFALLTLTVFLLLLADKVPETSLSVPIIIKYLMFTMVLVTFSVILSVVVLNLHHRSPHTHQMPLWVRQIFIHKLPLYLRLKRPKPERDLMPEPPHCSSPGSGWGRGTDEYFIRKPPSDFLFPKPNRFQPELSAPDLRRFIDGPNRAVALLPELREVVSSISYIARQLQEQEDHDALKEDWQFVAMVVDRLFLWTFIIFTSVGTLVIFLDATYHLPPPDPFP
Target sequence in this assay (Q04844 21-493 limits assumed): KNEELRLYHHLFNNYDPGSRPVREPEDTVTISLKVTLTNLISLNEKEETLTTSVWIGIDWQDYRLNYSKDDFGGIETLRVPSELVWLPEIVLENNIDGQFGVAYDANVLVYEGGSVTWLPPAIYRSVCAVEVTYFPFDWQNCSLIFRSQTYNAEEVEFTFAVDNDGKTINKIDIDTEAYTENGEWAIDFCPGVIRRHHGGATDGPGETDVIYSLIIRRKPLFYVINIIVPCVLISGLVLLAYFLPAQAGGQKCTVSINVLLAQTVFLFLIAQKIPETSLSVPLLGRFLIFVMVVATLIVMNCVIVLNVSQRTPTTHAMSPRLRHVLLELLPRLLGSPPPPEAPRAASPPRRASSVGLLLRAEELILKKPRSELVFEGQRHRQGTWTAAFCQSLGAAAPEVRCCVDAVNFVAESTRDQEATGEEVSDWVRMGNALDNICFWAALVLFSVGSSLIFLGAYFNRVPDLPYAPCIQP
Target sequence in this assay (Q07001 22-517 limits assumed): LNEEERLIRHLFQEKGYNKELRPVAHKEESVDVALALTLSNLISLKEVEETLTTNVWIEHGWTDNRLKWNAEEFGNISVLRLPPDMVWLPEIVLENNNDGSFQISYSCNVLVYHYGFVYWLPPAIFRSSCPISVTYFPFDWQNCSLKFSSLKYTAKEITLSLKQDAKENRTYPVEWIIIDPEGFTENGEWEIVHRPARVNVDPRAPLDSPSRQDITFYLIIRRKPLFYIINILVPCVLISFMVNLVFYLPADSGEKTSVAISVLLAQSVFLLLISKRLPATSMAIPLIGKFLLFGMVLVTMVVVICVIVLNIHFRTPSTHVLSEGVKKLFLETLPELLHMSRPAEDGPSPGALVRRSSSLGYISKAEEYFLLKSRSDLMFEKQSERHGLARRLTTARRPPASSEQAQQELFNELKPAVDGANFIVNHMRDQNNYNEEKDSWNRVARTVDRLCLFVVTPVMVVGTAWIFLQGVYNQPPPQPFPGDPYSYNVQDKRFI

human (h) α4β2 nAChR = target: T2, human (h) α4β2 nAChR (Homo sapiens, UniProt P17787+P43681); assay: Two-electrode voltage clamp, inhibition of ACh-evoked currents at hα4β2 nAChR in Xenopus oocytes; format: cell-based; conditions: for Relative current amplitude (h)α4β2: compound 100 µM, currents activated by 3 μM ACh, ratio ACh + compound to ACh alone, mean ± SD, n = 6–11
T2 construct: Jon Lindstrom; β2: OriGene (clones); host or cells: Xenopus laevis oocytes, cRNA injected
Experimental: as §1, §2, §3, §4, §5

human (h) α1β1γδ nAChR = target: T3, human (h) α1β1γδ nAChR (Homo sapiens, UniProt P02708+P07510+P11230+Q07001); assay: Two-electrode voltage clamp, inhibition of ACh-evoked currents at hα1β1γδ nAChR in Xenopus oocytes; format: cell-based; conditions: for Relative current amplitude (h)α1β1γδ: compound 100 µM, currents activated by 5 μM ACh, ratio ACh + compound to ACh alone, mean ± SD, n = 6–11
T3 construct: host or cells: Xenopus laevis oocytes, cRNA injected
Experimental: as §1, §2, §3, §4, §5

human (h) α3β2 nAChR = target: T4, human (h) α3β2 nAChR (Homo sapiens, UniProt P17787+P32297); assay: Two-electrode voltage clamp, inhibition of ACh-evoked currents at hα3β2 nAChR in Xenopus oocytes; format: cell-based; conditions: for Relative current amplitude (h)α3β2: compound 100 µM, currents activated by 6 μM ACh, ratio ACh + compound to ACh alone, mean ± SD, n = 6–11
T4 construct: host or cells: Xenopus laevis oocytes, cRNA injected
Experimental: as §1, §2, §3, §4, §5

human (h) α3β4 nAChR = target: T5, human (h) α3β4 nAChR (Homo sapiens, UniProt P30926+P32297); assay: Two-electrode voltage clamp, inhibition of ACh-evoked currents at hα3β4 nAChR in Xenopus oocytes; format: cell-based; conditions: for Relative current amplitude (h)α3β4: compound 100 µM, currents activated by 300 μM ACh, ratio ACh + compound to ACh alone, mean ± SD, n = 6–11
T5 construct: host or cells: Xenopus laevis oocytes, cRNA injected
Experimental: as §1, §2, §3, §4, §5

human (h) α9α10 nAChR = target: T6, human (h) α9α10 nAChR (Homo sapiens, UniProt Q9GZZ6+Q9UGM1); assay: Two-electrode voltage clamp, inhibition of ACh-evoked currents at hα9α10 nAChR in Xenopus oocytes; format: cell-based; conditions: for Relative current amplitude (h)α9α10: compound 100 µM, currents activated by 6 μM ACh, ratio ACh + compound to ACh alone, mean ± SD, n = 6–11
T6 construct: host or cells: Xenopus laevis oocytes, cRNA injected
Experimental: as §1, §2, §3, §4, §5

human (h) α7 nAChR = target: T7, human (h) α7 nAChR (Homo sapiens, UniProt P36544); assay: Two-electrode voltage clamp, inhibition of ACh-evoked currents at hα7 nAChR in Xenopus oocytes; format: cell-based; conditions: compound 100 µM; currents activated by 100 μM ACh; ratio ACh + compound to ACh alone; mean ± SD, n = 6–11
T7 construct: Jon Lindstrom (clone); host or cells: Xenopus laevis oocytes, cRNA injected
Experimental: as §1, §2, §3, §4, §5

human (h) α1β1εδ nAChR [2] = target: T1, human (h) α1β1εδ nAChR; conditions: read-out: half-maximal inhibitory concentration (IC50), ACh-evoked currents mediated by hα1β1εδ; cited from earlier work
[3] = compound 100 µM (Figure 3, Table S1), 100 µM
[4] = compound 100 µM (Figure 3, Table S1)

T2 sequence (P17787 26-502): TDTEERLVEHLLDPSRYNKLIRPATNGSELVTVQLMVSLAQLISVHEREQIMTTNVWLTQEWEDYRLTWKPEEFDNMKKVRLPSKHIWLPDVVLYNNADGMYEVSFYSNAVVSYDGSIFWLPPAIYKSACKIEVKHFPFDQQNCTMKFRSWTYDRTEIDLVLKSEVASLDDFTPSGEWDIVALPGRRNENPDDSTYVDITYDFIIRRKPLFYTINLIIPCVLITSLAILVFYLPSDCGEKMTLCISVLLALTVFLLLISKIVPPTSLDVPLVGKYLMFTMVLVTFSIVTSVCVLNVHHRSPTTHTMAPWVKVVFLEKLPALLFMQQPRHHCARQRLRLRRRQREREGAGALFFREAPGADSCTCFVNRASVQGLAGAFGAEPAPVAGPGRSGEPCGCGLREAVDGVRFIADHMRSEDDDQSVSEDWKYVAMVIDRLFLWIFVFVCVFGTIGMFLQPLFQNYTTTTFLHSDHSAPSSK
T2 sequence (P43681 29-627): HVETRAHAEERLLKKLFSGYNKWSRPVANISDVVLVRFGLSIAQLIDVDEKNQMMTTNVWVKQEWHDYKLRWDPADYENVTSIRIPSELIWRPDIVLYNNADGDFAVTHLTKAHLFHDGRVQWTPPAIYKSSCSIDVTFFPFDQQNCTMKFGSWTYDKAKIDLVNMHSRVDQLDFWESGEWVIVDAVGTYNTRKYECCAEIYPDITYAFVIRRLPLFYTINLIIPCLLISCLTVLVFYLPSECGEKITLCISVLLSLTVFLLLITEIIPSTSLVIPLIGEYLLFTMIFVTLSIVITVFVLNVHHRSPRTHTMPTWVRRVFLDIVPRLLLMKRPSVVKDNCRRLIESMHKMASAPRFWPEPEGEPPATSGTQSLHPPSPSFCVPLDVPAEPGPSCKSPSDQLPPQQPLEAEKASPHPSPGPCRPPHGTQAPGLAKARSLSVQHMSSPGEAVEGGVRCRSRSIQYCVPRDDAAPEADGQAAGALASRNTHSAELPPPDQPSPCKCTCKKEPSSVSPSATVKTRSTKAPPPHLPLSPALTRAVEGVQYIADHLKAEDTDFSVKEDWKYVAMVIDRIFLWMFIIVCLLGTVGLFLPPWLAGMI
T4 sequence (P32297 32-505): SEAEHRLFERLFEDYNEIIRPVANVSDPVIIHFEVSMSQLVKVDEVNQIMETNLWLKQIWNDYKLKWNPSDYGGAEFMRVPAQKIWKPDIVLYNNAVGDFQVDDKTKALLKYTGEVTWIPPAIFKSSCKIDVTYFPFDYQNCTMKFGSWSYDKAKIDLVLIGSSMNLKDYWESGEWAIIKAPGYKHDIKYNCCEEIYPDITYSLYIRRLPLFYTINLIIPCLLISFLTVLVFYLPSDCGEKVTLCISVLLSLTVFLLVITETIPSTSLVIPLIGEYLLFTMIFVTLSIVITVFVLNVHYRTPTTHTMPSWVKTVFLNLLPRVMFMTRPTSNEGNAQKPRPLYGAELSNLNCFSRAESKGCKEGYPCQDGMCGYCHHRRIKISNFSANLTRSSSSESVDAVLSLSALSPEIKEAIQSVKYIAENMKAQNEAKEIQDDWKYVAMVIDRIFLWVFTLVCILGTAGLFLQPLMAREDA
T4 sequence (P17787 26-502): as the sequence (P17787 26-502) above
T7 sequence (P36544 23-502): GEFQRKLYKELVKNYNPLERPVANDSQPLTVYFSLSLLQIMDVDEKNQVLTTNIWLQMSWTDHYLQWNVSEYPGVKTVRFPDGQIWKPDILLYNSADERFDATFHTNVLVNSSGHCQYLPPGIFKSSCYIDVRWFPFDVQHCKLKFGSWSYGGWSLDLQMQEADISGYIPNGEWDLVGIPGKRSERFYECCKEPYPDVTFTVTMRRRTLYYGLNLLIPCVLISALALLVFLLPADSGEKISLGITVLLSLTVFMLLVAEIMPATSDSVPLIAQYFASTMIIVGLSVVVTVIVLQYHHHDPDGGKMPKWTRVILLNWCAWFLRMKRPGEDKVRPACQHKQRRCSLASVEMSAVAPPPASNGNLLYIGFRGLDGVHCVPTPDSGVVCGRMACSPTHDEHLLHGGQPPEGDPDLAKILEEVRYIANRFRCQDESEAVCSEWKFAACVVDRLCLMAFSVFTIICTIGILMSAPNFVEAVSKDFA
T6 sequence (Q9UGM1 26-479 limits assumed): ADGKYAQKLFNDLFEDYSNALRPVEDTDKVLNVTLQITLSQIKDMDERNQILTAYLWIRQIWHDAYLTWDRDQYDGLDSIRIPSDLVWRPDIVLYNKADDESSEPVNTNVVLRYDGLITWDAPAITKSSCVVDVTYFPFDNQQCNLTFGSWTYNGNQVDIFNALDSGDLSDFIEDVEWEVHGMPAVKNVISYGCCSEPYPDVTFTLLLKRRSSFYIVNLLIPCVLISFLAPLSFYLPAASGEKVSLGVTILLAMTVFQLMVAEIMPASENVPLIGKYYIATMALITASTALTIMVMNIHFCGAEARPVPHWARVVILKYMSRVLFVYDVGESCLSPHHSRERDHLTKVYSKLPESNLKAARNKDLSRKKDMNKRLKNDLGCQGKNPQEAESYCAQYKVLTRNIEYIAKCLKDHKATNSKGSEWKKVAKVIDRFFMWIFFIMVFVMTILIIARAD
T6 sequence (Q9GZZ6 25-450): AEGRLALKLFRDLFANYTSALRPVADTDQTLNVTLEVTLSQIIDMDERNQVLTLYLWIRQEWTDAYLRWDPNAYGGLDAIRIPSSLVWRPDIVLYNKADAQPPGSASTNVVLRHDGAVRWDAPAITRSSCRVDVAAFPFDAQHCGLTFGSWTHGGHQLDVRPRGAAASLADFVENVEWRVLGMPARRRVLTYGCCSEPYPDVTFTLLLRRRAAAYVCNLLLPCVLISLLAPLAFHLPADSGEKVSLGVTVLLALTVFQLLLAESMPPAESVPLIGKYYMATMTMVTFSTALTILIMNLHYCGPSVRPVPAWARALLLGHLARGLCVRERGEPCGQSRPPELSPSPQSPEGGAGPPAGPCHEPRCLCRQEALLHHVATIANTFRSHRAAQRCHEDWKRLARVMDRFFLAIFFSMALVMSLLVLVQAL

| Compound | Relative current amplitude (h) α1β1εδ (human (h) α1β1εδ nAChR [1]) | Relative current amplitude (h)α4β2 (human (h) α4β2 nAChR) | Relative current amplitude (h)α1β1γδ (human (h) α1β1γδ nAChR) | Relative current amplitude (h)α3β2 (human (h) α3β2 nAChR) | Relative current amplitude (h)α3β4 (human (h) α3β4 nAChR) | Relative current amplitude (h)α9α10 (human (h) α9α10 nAChR) | Relative current amplitude (h)α7 (human (h) α7 nAChR) | other results |
| --- | --- | --- | --- | --- | --- | --- | --- | --- |
| CC(=O)c1cc(C)c(O)c(C[C@@]23Cc4c(O)c(C(C)=O)cc(C)c4O[C@]2(O)[C@H](CC(=O)O)OC3=O)c1O [penilactone B] |  |  |  |  |  |  |  | NF-kB inhibitory rate (NF-kB): 40% |
| C[C@@H]1C=CC(=O)[C@@]2(C)CC[C@@H]3[C@@H]4[C@@](C)(CC[C@@]4(C)CO)C[C@@]132 [conidiogenone C] |  |  |  |  |  |  |  | IC50 (HL60 cell lines; read-out: IC50, cytotoxicity against HL60 cell lines): 38 nM; IC50 (BEL-7047 cell lines): 900 nM |
| trichobotryside A |  |  |  |  |  |  |  | EC50, inhibiting the larvae settlement of Balamus amphitrite (Balamus amphitrite): 2.5 µg/mL |
| COC(=O)[C@@H](Cc1ccccc1)NC(=O)[C@@H](NC(=O)[C@H](NC(=O)[C@@H]1Cc2c([nH]c3ccccc23)CN1)C(C)C)C(C)C [Compound 5, psegynamide E] | 0.392 ± 0.069 | 0.837 ± 0.061 | 0.799 ± 0.063 | 0.656 ± 0.074 | 0.656 ± 0.051 | 0.374 ± 0.073 | 0.399 ± 0.061 |  |
| α-conotoxin GI (ECCNPACGRHYSC; ends and bridges not checked; cysteine pairing not given here; UniProt X5I9Y2 50-62, looked up) |  |  |  |  |  |  |  | IC50 (human (h) α1β1εδ nAChR [2]): 20 nM |
| COC(=O)[C@@H](Cc1ccccc1)NC(=O)[C@@H](NC(=O)[C@H](NC(=O)[C@@H](N)Cc1c[nH]c2ccccc12)C(C)C)C(C)C [Compound 2, psegynamide B] (H-W[dV]V[dF]-OMe) | 0.024 ± 0.011 | 0.301 ± 0.039 | 0.017 ± 0.014 | 0.236 ± 0.069 | 0.071 ± 0.028 | 0.075 ± 0.036 | 0.566 ± 0.072 | inhibition of ACh-evoked currents, α1β1εδ (human (h) α1β1εδ nAChR [1]; [3]): > 70%; inhibition at 100 µM (human (h) α4β2 nAChR; [4]): > 70%; inhibition of ACh-evoked currents, α1β1γδ (human (h) α1β1γδ nAChR; [3]): > 70% and > 98%; inhibition at 100 µM (human (h) α3β2 nAChR; [4]): > 70%; inhibition at 100 µM (human (h) α3β4 nAChR; [4]): > 70%; inhibition at 100 µM (human (h) α9α10 nAChR; [4]): > 70% |
| CC(=O)c1cc(C)c(O)c(C[C@]23Cc4c(O)c(C(C)=O)cc(C)c4O[C@@]2(O)[C@@H](C)OC3=O)c1O [penilactone A] |  |  |  |  |  |  |  | NF-kB inhibitory rate (NF-kB): 40% |
| COC(=O)[C@@H](Cc1ccc(O)cc1)NC(=O)[C@@H](NC(=O)[C@H](NC(=O)[C@@H]1Cc2c([nH]c3ccccc23)CN1)C(C)C)C(C)C [Compound 6, psegynamide F] (H-[Tpi][dV]V[dY]-OMe) | 0.618 ± 0.047 | 0.938 ± 0.076 | 0.802 ± 0.096 | 0.579 ± 0.077 | 0.777 ± 0.053 | 0.760 ± 0.062 | 0.838 ± 0.066 |  |
| CC(C)[C@H](NC(=O)[C@H](NC(=O)[C@@H](N)Cc1c[nH]c2ccccc12)C(C)C)C(=O)N[C@H](Cc1ccc(O)cc1)C(=O)O [Compound 3, psegynamide C] (H-W[dV]V[dY]-OH) | 0.648 ± 0.067 | 0.793 ± 0.078 | 0.861 ± 0.084 | 0.451 ± 0.056 | 0.675 ± 0.040 | 0.509 ± 0.041 | 0.368 ± 0.088 |  |
| CC(C)[C@H](NC(=O)[C@H](NC(=O)[C@@H]1Cc2c([nH]c3ccccc23)CN1)C(C)C)C(=O)N[C@H](Cc1ccccc1)C(=O)O [Compound 4, psegynamide D] | 0.757 ± 0.065 | 0.972 ± 0.057 | 0.985 ± 0.019 | 0.924 ± 0.069 | 0.670 ± 0.049 | 0.824 ± 0.064 | 0.228 ± 0.049 |  |
| CC(C)C(NC(=O)C(N)Cc1c[nH]c2ccccc12)C(=O)NC(C(=O)NC(Cc1ccccc1)C(=O)O)C(C)C (stereo not shown) [Compound 1, psegynamide A] (H-WVVF-OH; configuration not given here) | 0.190 ± 0.056 | 0.637± 0.053 | 0.664 ± 0.062 | 0.435 ± 0.071 | 0.462 ± 0.069 | 0.103 ± 0.027 | 0.293 ± 0.074 |  |
| trisorbicillone A |  |  |  |  |  |  |  | IC50 (HL60 cell lines; read-out: IC50, cytotoxic against HL60 cell lines): 3140 nM |
